# How the values were obtained:
# [1] = target: T1, recombinant human secretory phospholipase A2 (Homo sapiens, UniProt P14555); test: Inhibition test of human secretory phospholipase A2 (chromogenic assay, 96 well microtiterplate); assay type: biochemical; conditions: sPLA2 50 ng/well, 40° C., 30 minutes, OD 405 nm, substrate 1,2-bis(heptanoylthio)-1,2-dideoxy-sn-glycero-3-phospholylcholine
# T1 sequence (P14555 21-144): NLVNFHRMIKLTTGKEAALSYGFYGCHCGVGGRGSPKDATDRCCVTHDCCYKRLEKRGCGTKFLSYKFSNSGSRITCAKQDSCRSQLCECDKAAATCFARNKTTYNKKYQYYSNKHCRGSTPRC
# Description: Inhibition Test of Human Secretory Phospholipase A2 Analytical Experiment
# In order to identify and evaluate an inhibitor of recombinant human secretory phospholipase A2, the following chromogenic assay is utilized. The assay herein has been applied for high volume screening wherein 96 well microtiterplate is used. A general explanation for such assay is described in “Analysis of Human Synovial Fluid Phospholipase A2 on Short Chain Phosphatidylcholine-Mixed Micelles: Development of a Spectrophotometric Assay Suitable for a Micortiterplate Reader” (Analytical Biochemistry, 204, pp 190-197, 1992 by Laure. J. Reynolds. Lori L. Hughes and Edward A. Dennis: the disclosure of which is incorporated herein for reference.
# Bovine Serum Albumin (fatty acid free) (1 g/L) (Sigma A-7030)
# pH 7.5 (adjusted with NaOH)
# pH 4.5 (adjusted with acetic acid)
# 1 mg of sPLA2 is dissolved in 1 ml of an enzyme buffer. Thereafter, the solution is maintained at 4° C.
# In the assay, 5 μl of the solution is diluted with 1995 μl of the reaction buffer to be used.
# 198 mg of 5,5′-dithiobis-2-[…] (manufactured by Wako Pure Chemicals) is dissolved in 100 ml of H2O
# 100 mg of racemic 1,2-bis(heptanoylthio)-1,2-dideoxy-sn-glycero-3-phospholylcholine is dissolved in 1 ml of chloroform.
# 624.9 mg of Triton-X 100 is dissolved in 100 ml of the reaction buffer.
# Enzyme Reaction: for 1 plate of Microtiterplate
# 1) 0.106 ml of the substrate solution is put in a centrifugal tube, and nitrogen gas is jetted to remove the solvent. 0.54 ml of Triton-X 100 is added thereto, the mixture is stirred, thereafter it is sonified in a bath type sonification to dissolve. To the resulting product are added 17.8 ml of the reaction buffer and 0.46 ml of DTNB, and 0.18 ml each of the admixture is poured to wells of the 96 well microtiterplate.
# 2) 10 μl of a test compound (or solvent blank) are added in accordance with alignment of plates which has been previously set.
# 3) Incubation is effected at 40° C. for 15 minutes.
# 4) 20 μl of an enzyme solution (sPLA2) which has been previously diluted (50 ng/well) are added to start reaction (40° C., 30 minutes).
# 5) Changes in absorbancy for 30 minutes are measured by a plate reader, and inhibition activity was calculated (OD: 405 nm).
# 6) IC50 was determined by plotting log concentration with respect to inhibition values within 10% to 90% inhibiting range.
IC50 [1] [nM],melting point,Compound
31,–,NC(=O)C1=NOCc2c1c1c(OCC(=O)O)cccn1c2Cc1ccccc1 [Compound I-11]
125,196 to 198 °C,COC(=O)COc1cccn2c(Cc3ccc(-c4ccccc4)cc3)c3c(c12)C(C(N)=O)=CCC3 [Compound I-12]
10,224 to 227 °C,NC(=O)C1=CCCc2c1c1c(OCC(=O)O)cccn1c2Cc1ccc(-c2ccccc2)cc1 [Compound I-13]
725,218 to 220 °C,COC(=O)COc1cccn2c(Cc3ccccc3)c3c(c12)C(C(N)=O)OCC3 (stereo not drawn) [Compound I-14]
35,242 to 243 °C (dec.),NC(=O)C1OCCc2c1c1c(OCC(=O)O)cccn1c2Cc1ccccc1 (stereo not drawn) [Compound I-15]

# Further lines, the compound ahead of its results:
Compound,IC50 [1] [nM],melting point
NC(=O)C1=CCCc2c1c1c(OCC(=O)O)cccn1c2Cc1ccccc1 [Compound I-2],8,–
NC(=O)C1CCCc2c1c1c(OCC(=O)O)cccn1c2Cc1ccccc1 (stereo not drawn) [Compound I-3],21,–
CCOC(=O)CCCOc1ccn2c(Cc3ccccc3)c3c(c2c1)C(C(N)=O)=CCC3 [Compound I-4],175,–
NC(=O)C1=CCCc2c1c1cc(OCCCC(=O)O)ccn1c2Cc1ccccc1 [Compound I-5],49,–
COC(=O)COc1cccn2c(Cc3ccccc3)c3c(c12)C(C(N)=O)OCCC3 (stereo not drawn) [Compound I-6],7500,182 to 183 °C
NC(=O)C1OCCCc2c1c1c(OCC(=O)O)cccn1c2Cc1ccccc1 (stereo not drawn) [Compound I-7],269,175 to 179 °C
COC(=O)COc1cccn2c(Cc3ccccc3)c3c(c12)C(C(N)=O)=NCC3 [Compound I-8],21100,–
NC(=O)C1=NCCc2c1c1c(OCC(=O)O)cccn1c2Cc1ccccc1 [Compound I-9],1590,196 to 198 °C
NC(=O)c1nncc2c(Cc3ccccc3)n3cccc(OCC(=O)O)c3c12 [Compound I-10],39900,–

# — patent publication US6673781B1, “Tricyclic compounds having sPLA2-inhibitory activities” (Shionogi & Co., Ltd., priority 1999, dated 2004)
